The values below come from US11186589B2, “Cyanoindoline derivatives as NIK inhibitors” (Janssen Pharmaceutica NV, priority 2016, dated 2021).

One experiment addresses NIK/MAP3K14 (Homo sapiens (Human), UniProt Q99558). Nature of the experiment: Inhibition of auto-phosphorylation of recombinant human NF-kappaB-inducing kinase (NIK/MAP3K14) activity (AlphaScreen). It counts as biochemical. To be noted: averaged values over all measurements on all batches, 25 microM ATP. A digest of the protocol: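 GST-tagged NIK (0.2 nM) auto-phosphorylation was run with 25 microM ATP in pH 7.5 Tris buffer with MgCl2 for 1 h at 25 °C. It was detected by AlphaScreen with anti-phospho-IKK Ser176/180 antibody. IC50 came from sigmoidal fits of blank-subtracted % inhibition versus log concentration.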

The next experiment concerns JJN-3 cells. As to the kind of experiment: Antiproliferative activity on JJN-3 (NIK translocated) multiple myeloma cells (CellTiter-Glo). It is filed as cell-based, human. To be noted: Homo sapiens, JJN-3, 96 h, JJN-3 (NIK translocated) cells, 96 hr treatment, averaged values, read-out: JJN-3 Proliferation inhibition (IC50 (nM)). A digest of the protocol: (§1)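 Cells in RPMI 1640 with 2 mM L-glutamine and 10% FCS, treated 96 hr at 37 °C with 9-point 1:3 dilution series, 0.3% DMSO final. Viability read by CellTiter-Glo luminescence, mean of 2 wells. Time-zero blank subtracted; growth expressed as % of untreated control.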

The next experiment has as its system KMS12-BM cells. Nature of the experiment: Antiproliferative activity on KMS12-BM (NIK WT) multiple myeloma cells (CellTiter-Glo). It is filed as cell-based, human. The conditions noted are these: Homo sapiens, KMS-12-BM, 96 h, 96 hr treatment, averaged values, read-out: KMS-12 Proliferation inhibition (IC50 (nM)). A digest of the protocol:
as §1
Background: ATP-based viability assays read luminescence as a measure of living cells.

For experiment [1], the system named is P-IKKα levels in L363 cells. Nature of the experiment: Effect of compounds on P-IKKα levels in L363 (NIK translocated multiple myeloma) cells. It is filed as cell-based, human. To be noted: Homo sapiens, L-363, 2 h, 2 hr treatment, averaged values, read-out: Inhibition of pIKKα_L-363 (IC50 (nM)). On the procedure: Effect of Compounds on P-IKKα Levels in L363 (NIK Translocated Multiple Myeloma) Cells
All compounds tested were dissolved in DMSO and further dilutions were made in culture medium. Final DMSO concentration was 1% (v/v) in cell assays. The human L363 cells (ATCC) were cultured in RPMI 1640 medium supplemented with GlutaMax and 10% fetal calf serum (PAA). Cells were routinely maintained at densities of 0.2×10^6 cells per ml—1×10^6 cells per ml at 37° C. in a humidified 5% CO2 atmosphere. Cells were passaged twice a week splitting back to obtain the low density. Cells were seeded in 96 well plates (Nunc 167008) at 2×10^6 per ml media in a volume of 75 μl per well plus 25 μl 1 μg/ml recombinant human B-cell activating factor (BAFF/BLyS/TNFSF13B). Seeded cells were incubated at 37° C. in a humidified 5% CO2 atmosphere for 24 hr. Drugs and/or solvents were added (20 μl) to a final volume of 120 μl. Following 2 hr treatment plates were removed from the incubator and cell lysis was achieved by the addition of 30 μl 5× lysis buffer followed by shaking on a plate shaker at 4° C. for 10 min. At the end of this incubation lysed cells were centrifuged at 800×g for 20 min at 4° C. and the lysate was assessed for P-IKKα levels by sandwich immuno-assay carried out in anti-rabbit antibody coated Mesoscale plates. Within an experiment, the results for each treatment were the mean of 2 replicate wells. For initial screening purposes, compounds were tested using an 8 point dilution curve (serial 1:3 dilutions). For each experiment, controls (containing MG132 and BAFF but no test drug) and a blank incubation (containing MG132 and BAFF and 10 μM ADS125117, a test concentration known to give full inhibition) were run in parallel. The blank incubation value was subtracted from all control and sample values. To determine the IC50 a sigmoidal curve was fitted to the plot of % inhibition of control P-IKKα levels versus Log10 compound concentration.

Sequence of NIK/MAP3K14 (Q99558 whole entry): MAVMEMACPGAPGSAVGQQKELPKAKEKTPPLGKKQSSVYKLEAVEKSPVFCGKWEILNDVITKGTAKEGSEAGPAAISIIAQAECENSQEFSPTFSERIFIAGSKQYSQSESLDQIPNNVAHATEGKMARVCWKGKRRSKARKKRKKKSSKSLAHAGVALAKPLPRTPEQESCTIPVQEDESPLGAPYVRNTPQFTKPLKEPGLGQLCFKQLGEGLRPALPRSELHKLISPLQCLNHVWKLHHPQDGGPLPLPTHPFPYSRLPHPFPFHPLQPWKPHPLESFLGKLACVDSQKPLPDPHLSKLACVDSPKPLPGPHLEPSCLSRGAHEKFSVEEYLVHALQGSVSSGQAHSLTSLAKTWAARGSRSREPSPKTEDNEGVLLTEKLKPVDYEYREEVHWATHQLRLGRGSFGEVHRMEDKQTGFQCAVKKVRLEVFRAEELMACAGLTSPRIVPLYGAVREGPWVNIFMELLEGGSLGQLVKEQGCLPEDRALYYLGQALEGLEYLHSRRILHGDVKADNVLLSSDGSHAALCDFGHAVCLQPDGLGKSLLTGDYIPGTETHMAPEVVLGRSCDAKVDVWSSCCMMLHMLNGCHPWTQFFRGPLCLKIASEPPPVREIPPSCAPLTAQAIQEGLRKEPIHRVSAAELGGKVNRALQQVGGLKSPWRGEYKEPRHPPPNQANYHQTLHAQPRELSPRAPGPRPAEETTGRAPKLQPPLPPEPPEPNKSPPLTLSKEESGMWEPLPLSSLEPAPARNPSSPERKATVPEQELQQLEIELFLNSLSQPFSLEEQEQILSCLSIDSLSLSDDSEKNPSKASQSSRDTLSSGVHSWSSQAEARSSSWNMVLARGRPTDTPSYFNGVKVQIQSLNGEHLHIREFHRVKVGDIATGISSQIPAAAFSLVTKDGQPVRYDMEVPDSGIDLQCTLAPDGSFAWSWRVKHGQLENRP

With `CC1(C)CCn2ncc(Nc3nccc(-c4cc(C#N)c5c(c4)[C@@](C)(CO)CN5)n3)c2O1` [Compound 25b], the IC50 at NIK/MAP3K14 was 8.1 nM; in the experiment on JJN-3 cells, 3020 nM; in the experiment on KMS12-BM cells, above 10000 nM; in experiment [1], 7 nM.
Regarding `C[C@]1(CO)CNc2c(C#N)cc(-c3ccnc(Nc4cnn5c4C(=O)N(Cc4ccccc4)CC5)n3)cc21` [Compound 26b], the IC50 at NIK/MAP3K14 is 9.5 nM; with JJN-3 cells it was 1700 nM; in the experiment with KMS12-BM cells it was around 9550 nM; in experiment [1], 25 nM.
The matching figures for `CC(C)CN1CCn2ncc(Nc3nccc(-c4cc(C#N)c5c(c4)[C@@](C)(CO)CN5)n3)c2C1=O` [Compound 27b]: 4.47 nM, 1580 nM, above 10000 nM and 13 nM.
On to `Cc1nc2c(cc1Nc1nccc(-c3cc(C#N)c4c(c3)[C@@](C)(CO)CN4)n1)COCC2` [Compound 28], for which the IC50 at NIK/MAP3K14 was 1.1 nM; in the experiment with JJN-3 cells it was 851 nM; in the experiment with KMS12-BM cells, above 10000 nM; in experiment [1], 14 nM.
The matching figures for `CC(C)N1CCCn2ncc(Nc3nccc(-c4cc(C#N)c5c(c4)[C@@](C)(CO)CN5)n3)c2C1=O` [Compound 28b]: 17 nM, 3390 nM, above 10000 nM and 251 nM.
With `CN1CCc2ncc(Nc3nccc(-c4cc(C#N)c5c(c4)[C@@](C)(CO)CN5)n3)cc2C1` [Compound 29], the IC50 at NIK/MAP3K14 was 3.4 nM; in the experiment with JJN-3 cells, around 27 nM; in the experiment on KMS12-BM cells it was 51 nM; in experiment [1] it was 16 nM.
As to `CN1CCc2cc(Nc3nccc(-c4cc(C#N)c5c(c4)[C@@](C)(CO)CN5)n3)ccc2C1` [Compound 30], the IC50 was 0.8 nM at NIK/MAP3K14, 4 nM with JJN-3 cells, 10 nM in the experiment on KMS12-BM cells and 2 nM in experiment [1].
Take `CN1CCc2ccc(Nc3nccc(-c4cc(C#N)c5c(c4)[C@@](C)(CO)CN5)n3)cc2C1` [Compound 31]: the IC50 was 1.4 nM at NIK/MAP3K14, 4 nM with JJN-3 cells, around 31 nM in the experiment with KMS12-BM cells and 2 nM in experiment [1].
As for `COc1nc2c(cc1Nc1nccc(-c3cc(C#N)c4c(c3)[C@@](C)(CO)CN4)n1)CN(C)CC2` [Compound 32], the IC50 at NIK/MAP3K14 was 1.7 nM; in the experiment on JJN-3 cells, 195 nM; in the experiment with KMS12-BM cells it was 525 nM; in experiment [1], 10 nM.
Consider `COCCCc1nc2c(cc1Nc1nccc(-c3cc(C#N)c4c(c3)[C@@](C)(CO)CN4)n1)COCC2` [Compound 33], for which the IC50 at NIK/MAP3K14 was 8.1 nM; with JJN-3 cells, 776 nM; in the experiment with KMS12-BM cells it was above 10000 nM; in experiment [1] it was 17 nM.
On to `C[C@]1(CO)CNc2c(C#N)cc(-c3ccnc(Nc4cc5c(nc4OCC4CC4)CCOC5)n3)cc21` [Compound 34], for which the IC50 on NIK/MAP3K14 was 10.5 nM; with JJN-3 cells it was 1740 nM; in the experiment on KMS12-BM cells, above 10000 nM; in experiment [1] it was 23 nM.
`CC1(CO)CNc2c(C#N)cc(-c3ccnc(Nc4cc(Cl)cc5c4OCC5)n3)cc21` (stereo not drawn) [Compound 41]: the IC50 was 11.8 nM on NIK/MAP3K14, 138 nM with JJN-3 cells, above 10000 nM with KMS12-BM cells and 3 nM in experiment [1].
For `CNC(=O)c1cc(Nc2nccc(-c3cc(C#N)c4c(c3)[C@@](C)(CO)CN4)n2)c(=O)n2c1CCC2` [Compound 44], the IC50 was 4.5 nM at NIK/MAP3K14, above 10000 nM in the experiment on JJN-3 cells, above 10000 nM in the experiment on KMS12-BM cells and 35 nM in experiment [1].
For the compound `CC(C)Oc1nc2c(cc1Nc1nccc(-c3cc(C#N)c4c(c3)[C@@](C)(CO)CN4)n1)COCC2` [Compound 46], the IC50 on NIK/MAP3K14 was 13 nM; with JJN-3 cells it was 778 nM; with KMS12-BM cells it was above 10000 nM; in experiment [1] it was 20 nM.
The like results for `Cn1c2c(cc(Nc3nccc(-c4cc(C#N)c5c(c4)[C@@](C)(CO)CN5)n3)c1=O)COCC2` [Compound 48] were, in that order, 1.6 nM, around 2340 nM, above 10000 nM and 31 nM.
The matching figures for `CC(C)Oc1nc2c(cc1Nc1nccc(-c3cc(C#N)c4c(c3)[C@@](C)(CO)CN4)n1)CN(C)CC2` [Compound 50]: 3.4 nM, 240 nM, 3980 nM and 56 nM.
Consider `C[C@]1(CO)CNc2c(C#N)cc(-c3ccnc(Nc4cnc5c(c4)CN(C4CC4)CC5)n3)cc21` [Compound 51], for which the IC50 at NIK/MAP3K14 is 3.4 nM; in the experiment on JJN-3 cells it was 52 nM; in the experiment on KMS12-BM cells, around 174 nM; in experiment [1] it was 4 nM.
`COc1nc2c(cc1Nc1nccc(-c3cc(C#N)c4c(c3)[C@@](C)(CO)CN4)n1)CN(C1CC1)CC2` [Compound 52]: the IC50 on NIK/MAP3K14 was 7.8 nM; in the experiment on JJN-3 cells, 200 nM; with KMS12-BM cells, above 10000 nM; in experiment [1], 20 nM.
Take `COc1nc2c(cc1Nc1nccc(-c3cc(C#N)c4c(c3)C(C)(CC(F)F)CN4)n1)CN(C)CC2` (stereo not drawn) [Compound 56]: the IC50 was 12 nM on NIK/MAP3K14, 3240 nM in the experiment with JJN-3 cells, around 5750 nM with KMS12-BM cells and 76 nM in experiment [1].
Take `C[C@]1(CO)CNc2c(C#N)cc(-c3ccnc(Nc4cc5c(n(CCC6CC6)c4=O)CCOC5)n3)cc21` [Compound 58]: the IC50 is 35.5 nM on NIK/MAP3K14, 2400 nM in the experiment with JJN-3 cells, above 10000 nM with KMS12-BM cells and 204 nM in experiment [1].
As to `CCc1c(Nc2nccc(-c3cc(C#N)c4c(c3)[C@@](C)(CO)CN4)n2)ccc2c1CCN(C(C)CO)C2` (stereo partly drawn) [Compound 60], the IC50 at NIK/MAP3K14 was determined as 4.8 nM; with JJN-3 cells it was 100 nM; in the experiment with KMS12-BM cells, 603 nM; in experiment [1], 17 nM.
